Laboratory results: patent US11560370B1, “5-membered heteroaryl carboxamide compounds for treatment of HBV” (Assembly Biosciences, Inc., priority 2018, dated 2023)

The compounds below were run on HBV (assay: Viral production from HepAD38 cells, viral load by qPCR of HBV core sequence). Details: 5 days, supernatant HBV DNA by qPCR, read-out: Viral Load EC50 Activity range.
Type: cell-based
Description: Assay Measuring Activity of Test Compounds on Viral Production from HepAD38 Cells
HepAD38 cells grown in a T-150 flask (Corning, cat #: 430825) with Growth Medium (DMEM/F12 (1:1) (Hyclone, cat #: SH30023.02), 1× Pen/Strep (Invitrogen, cat #: 15140-122), 10% FBS (Tissue Culture Biologics, cat #: 101), 250 μg/mL G418 (Alfa Aesar, cat #: J62671), 1 μg/mL Tetracycline (Teknova, cat #: T3320)) were detached with 0.25% trypsin-EDTA to (Invitrogen, cat #: 25200-056). Tetracycline-free treatment medium (15 mL DMEM/F12 (1:1) 1× Pen/step, with 2% FBS, Tet-system approved (Clontech, cat #: 631106) were then added to mix, transferred into a 50 ml conical tube (Falcon, cat #: 21008-918,) and spun at 1300 rpm for 5 min. Pelleted cells were then re-suspended/washed with 50 mL of 1×DPBS (Invitrogen, cat #: 14190-136) 2 times and 50 mL treatment medium twice. HepAD38 cells were then re-suspended with 10 mL of treatment medium, syringed and counted. Wells of 96-well clear bottom TC plate (Corning, cat #: 3904,) were seeded at 50,000 cells/well in 180 μL of treatment medium, and 20 μL of either 10% DMSO (Sigma, cat #: D4540) as controls or a 10× solution of test compounds in 10% DMSO in treatment media was added for a final compound concentration starting at 10 μM, and plates were incubated in 5% CO2 incubator at 37° C. for 5 days.
Subsequently viral load production was assayed by quantitative PCR (qPCR) of the HBV core sequence. PCR reaction mixture containing forward primers HBV-f 5′-CTGTGCCTTGGGTGGCTTT-3′ (IDT DNA), Reverse primers HBV-r 5′-[…]-3′ (IDT DNA), Fluorescent TaqMan™ Probes HBV-probe 5′-FAM/AGCTCCAAA/ZEN/[…]/3IABkFQ-3′ (IDT DNA), 10 μL/well of PerfeCTa® qPCR ToughMix® (Quanta Biosciences, Cat #: 95114-05K), and 6 μL/well of DEPC water (Alfa Aesar, cat #: J62087) was prepared. […] of supernatant was added to 16 μL of the reaction mixture in a qPCR plate (Applied Biosytems, Cat #: 4309849), sealed with a film (Applied Biosystems, Cat #: 4311971), centrifuged for a few seconds, and subsequently run on an Applied Biosystems VIIA7. The PCR mixture was incubated at 45° C. for 5 min, then 95° C. for 10 min, followed by 40 cycles of 10 seconds at 95° C. and 20 seconds at 60° C. Viral load was quantified against known HBV DNA standards by using ViiA™ 7 Software. Viral load in the supernatant from wells with treated cells were compared against viral load in supernatant from DMSO control wells (>3 per plate). Cell viability assay was performed with CellTiter-Glo Luminescent Cell Viability Assay (Promega, cat #: G7573) with modification. Mixed appropriate amount of CellTiter-Glo (CTG) 1×DPBS in a 1:1 ratio, added 100 uL of the mixture to each well followed completely removal of all supernatant in each well without touching cell surface. Incubated the plate at room temperature for 10 min on an orbital shaker, and then read the plate with a plate reader (TECAN M1000 or Envision). EC50 or CC50 values were calculated through curve-fitting of the four-parameter nonlinear-logistic-regression model (GraphPad Prism or Dotmatics). CC50 values were all >10 μM.

Row | SMILES | EC50 [µM]
1 | Cn1nc(C2CC3CN(C(=O)OC(C)(C)C)CC3C2)c(C(=O)Nc2ccc(F)c(Cl)c2)c1N (stereo not drawn) [AIA-005] | < 0.1
2 | Cn1nc(C2CC3CNCC3C2)c(C(=O)Nc2ccc(F)c(Cl)c2)c1N (stereo not drawn) [AIA-006] | 0.5 to 10
3 | CC(=O)N1CC2CC(c3nn(C)c(N)c3C(=O)Nc3ccc(F)c(Cl)c3)CC2C1 (stereo not drawn) [AIA-007] | < 0.1
4 | Cn1nc(C2CC3CC(C(=O)O)CC3C2)c(C(=O)Nc2ccc(F)c(Cl)c2)c1N (stereo not drawn) [AIA-014] | < 0.1
5 | Cn1nc(C2CC3CC(C(N)=O)CC3C2)c(C(=O)Nc2ccc(F)c(Cl)c2)c1N (stereo not drawn) [AIA-015] | < 0.1
6 | CCOC(=O)C=C1CC2CC(c3nn(C)c(N)c3C(=O)Nc3ccc(F)c(Cl)c3)CC2C1 (stereo not drawn) [AIA-017] | < 0.1
7 | CCOC(=O)CC1CC2CC(c3nn(C)c(N)c3C(=O)Nc3ccc(F)c(Cl)c3)CC2C1 (stereo not drawn) [AIA-018] | < 0.1
8 | Cn1nc(C2CC3CC(CCO)CC3C2)c(C(=O)Nc2ccc(F)c(Cl)c2)c1N (stereo not drawn) [AIA-019] | < 0.1

Same assay, conditions: Hepatitis B virus, HePAD38, 120 h, 5 days, supernatant HBV DNA by qPCR, read-out: Viral Load EC50 Activity range

Row | SMILES | EC50 [µM]
9 | COc1ccc([C@H]2CC[C@@H](c3nn(C)c(N)c3C(=O)Nc3ccc(F)c(Cl)c3)C2)cc1 [AIA-003-A, 5-Amino-N-(3-chloro-4-fluorophenyl)-3-((1R,3S)-3-(4-methoxyphenyl)cyclopentyl)-1-methyl-1H-pyrazole-4-carboxamide] | < 0.1
10 | COc1ccc([C@H]2CC[C@H](c3nn(C)c(N)c3C(=O)Nc3ccc(F)c(Cl)c3)C2)cc1 [AIA-003-B, 5-amino-N-(3-chloro-4-fluorophenyl)-3-((1S,3S)-3-(4-methoxyphenyl)cyclopentyl)-1-methyl-1H-pyrazole-4-carboxamide] | < 0.1
11 | COc1ccc([C@@H]2CC[C@H](c3nn(C)c(N)c3C(=O)Nc3ccc(F)c(Cl)c3)C2)cc1 [AIA-003-C, 5-Amino-N-(3-chloro-4-fluorophenyl)-3-((1S,3R)-3-(4-methoxyphenyl)cyclopentyl)-1-methyl-1H-pyrazole-4-carboxamide] | 0.1 to 0.5
12 | COc1ccc([C@@H]2CC[C@@H](c3nn(C)c(N)c3C(=O)Nc3ccc(F)c(Cl)c3)C2)cc1 [AIA-003-D, 5-amino-N-(3-chloro-4-fluorophenyl)-3-((1R,3R)-3-(4-methoxyphenyl)cyclopentyl)-1-methyl-1H-pyrazole-4-carboxamide] | < 0.1
13 | Cn1nc(C2CC3CC(C)(O)CC3C2)c(C(=O)Nc2ccc(F)c(Cl)c2)c1N (stereo not drawn) [AIA-011, 5-Amino-N-(3-chloro-4-fluorophenyl)-3-(5-hydroxy-5-methyloctahydropentalen-2-yl)-1-methyl-1H-pyrazole-4-carboxamide] | < 0.1
14 | CCN(CC)C1CC2CC(c3nn(C)c(N)c3C(=O)Nc3ccc(F)c(Cl)c3)CC2C1 (stereo not drawn) [AIA-012, 5-Amino-N-(3-chloro-4-fluorophenyl)-3-(5-(diethylamino)octahydropentalen-2-yl)-1-methyl-1H-pyrazole-4-carboxamide] | 0.1 to 0.5
15 | Cn1nc(C2CC3CC(N4CCC4)CC3C2)c(C(=O)Nc2ccc(F)c(Cl)c2)c1N (stereo not drawn) [AIA-013, 5-Amino-3-(5-(azetidin-1-yl)octahydropentalen-2-yl)-N-(3-chloro-4-fluorophenyl)-1-methyl-1H-pyrazole-4-carboxamide] | 0.1 to 0.5
16 | CNC(=O)C1CC2CC(c3nn(C)c(N)c3C(=O)Nc3ccc(F)c(Cl)c3)CC2C1 (stereo not drawn) [AIA-016, 5-Amino-N-(3-chloro-4-fluorophenyl)-1-methyl-3-(5-(methylcarbamoyl)octahydropentalen-2-yl)-1H-pyrazole-4-carboxamide] | < 0.1
17 | CN(C)C(=O)CC1CC2CC(c3nn(C)c(N)c3C(=O)Nc3ccc(F)c(Cl)c3)CC2C1 (stereo not drawn) [AIA-020, 5-Amino-N-(3-chloro-4-fluorophenyl)-3-(5-(2-(dimethylamino)-2-oxoethyl)octahydropentalen-2-yl)-1-methyl-1H-pyrazole-4-carboxamide] | < 0.1
18 | Cn1nc(C2CC3CC(CC(N)=O)CC3C2)c(C(=O)Nc2ccc(F)c(Cl)c2)c1N (stereo not drawn) [AIA-021, 5-Amino-3-(5-(2-amino-2-oxoethyl)octahydropentalen-2-yl)-N-(3-chloro-4-fluorophenyl)-1-methyl-1H-pyrazole-4-carboxamide] | < 0.1
